Test results published in the supplement of paper PMC10307832.

Key:
Test in all cases: relative viability (nuclei count vs DMSO), 5 days (fraction); higher = more cells survive
[1] = compound: C1=CC2=C(C=C(C(=C2N=C1)O)N=NC3=CC4=C(C=C3)C=C(C=C4)S(=O)(=O)O)S(=O)(=O)O + CC(C)C[C@H](NC(=O)[C@H](Cc1ccccc1)NC(=O)c1cnccn1)B(O)O [Bortezomib] (partner 0.002 µM)
Outline: (§1)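 Five library-drug doses in √10 steps were combined with a fixed anchor-drug dose, or a single drug was given alone, by pin tool to lung cancer cell lines in 1536-well plates the day after seeding. Nuclei were stained and counted after 5 days. Relative viability is the nuclei count in treated wells over that in vehicle wells, taken as the median of duplicate plates.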

[2] = compound: C1=CC2=C(C=C(C(=C2N=C1)O)N=NC3=CC4=C(C=C3)C=C(C=C4)S(=O)(=O)O)S(=O)(=O)O + O=C(CCCCCCC(=O)Nc1ccccc1)NO [Vorinostat] (partner 1 µM)
Outline: as §1

AT-7519 + Phenformin = compound: O=C(NC1CCNCC1)c1n[nH]cc1NC(=O)c1c(Cl)cccc1Cl [AT-7519] + N=C(N)NC(=N)NCCc1ccccc1 [Phenformin] (partner 250 µM)
Outline: as §1

AT-7519 + AZD7762 = compound: O=C(NC1CCNCC1)c1n[nH]cc1NC(=O)c1c(Cl)cccc1Cl [AT-7519] + NC(=O)Nc1cc(-c2cccc(F)c2)sc1C(=O)N[C@H]1CCCNC1 [AZD7762] (partner 0.2 µM)
Outline: as §1

| Cell Line | relative viability ([1]; first compound 0.08 µM) | relative viability ([1]; first compound 0.253 µM) | relative viability ([1]; first compound 0.8 µM) | relative viability ([1]; first compound 2.53 µM) | relative viability ([1]; first compound 8 µM) | relative viability ([2]; first compound 0.08 µM) | relative viability ([2]; first compound 0.253 µM) | relative viability ([2]; first compound 0.8 µM) | relative viability ([2]; first compound 2.53 µM) | relative viability ([2]; first compound 8 µM) | relative viability (AT-7519 + Phenformin; first compound 0.01 µM) | relative viability (AT-7519 + Phenformin; first compound 0.03162 µM) | relative viability (AT-7519 + Phenformin; first compound 0.3162 µM) | relative viability (AT-7519 + Phenformin; first compound 1 µM) | relative viability (AT-7519 + AZD7762; first compound 0.01 µM) | relative viability (AT-7519 + AZD7762; first compound 0.03162 µM) | relative viability (AT-7519 + AZD7762; first compound 0.3162 µM) | relative viability (AT-7519 + AZD7762; first compound 1 µM) |
| --- | --- | --- | --- | --- | --- | --- | --- | --- | --- | --- | --- | --- | --- | --- | --- | --- | --- | --- |
| NCI-H322M | 1.26 | 1.11 | 1.22 | 1.32 | 1.28 | 0.967 | 0.825 | 0.864 | 0.856 | 0.905 | 0.796 | 0.784 | 0.612 | 0.448 | 0.534 | 0.533 | 0.578 | 0.639 |
| NCI-H647 | 1.2 | 1.08 | 0.97 | 0.953 | 1.19 | 0.646 | 0.607 | 0.563 | 0.639 | 0.437 | 0.619 | 0.529 | 0.335 | 0.281 | 0.353 | 0.481 | 0.552 | 0.361 |
| NCI-H2085 | 1.23 | 1.05 | 1.01 | 1.11 | 0.953 | 0.85 | 0.775 | 0.717 | 0.775 | 0.702 | 0.744 | 0.7 | 0.759 | 0.53 | 0.977 | 0.984 | 0.986 | 1.02 |
| NCI-H727 | 0.917 | 0.945 | 0.854 | 0.853 | 0.816 | 1.13 | 1.26 | 1.09 | 1.12 | 1.09 | 0.527 | 0.584 | 0.509 | 0.417 | 0.571 | 0.494 | 0.604 | 0.414 |
| NCI-H441 | 0.576 | 0.385 | – | 0.484 | 0.718 | 0.903 | 0.684 | 0.845 | 0.805 | 0.837 | 0.847 | 0.955 | 0.775 | 0.515 | 1.01 | 1.16 | 1.2 | 1.02 |
| LOU-NH91 | 0.504 | 0.477 | 0.51 | 0.498 | 0.496 | 1 | 0.89 | 0.903 | 0.865 | 0.639 | 0.674 | 0.743 | 0.677 | 0.631 | 0.755 | 0.79 | 0.643 | 0.713 |
| NCI-H3122 | 0.975 | 0.899 | 1.02 | 0.996 | 0.987 | 1.16 | 1.04 | 0.96 | 0.814 | 0.948 | 0.405 | 0.37 | 0.325 | 0.13 | 1.01 | 1.11 | 1.02 | 0.752 |
| NCI-H460 | 1.39 | 1.04 | 0.99 | 1.19 | 1.09 | 0.955 | 0.66 | 0.684 | 0.708 | 0.71 | 0.636 | 0.31 | 0.0379 | 0.0177 | 0.665 | 0.653 | 1.02 | 0.693 |
| NCI-H650 | 0.782 | 0.748 | 0.94 | 0.758 | 0.614 | 0.435 | 0.472 | 0.416 | 0.413 | 0.175 | 0.492 | 0.465 | 0.49 | 0.421 | 1.07 | 0.953 | 0.887 | 1.29 |
| NCI-H1734 | 1.07 | 0.885 | 0.863 | 1.09 | 0.978 | 0.788 | 0.852 | 0.757 | 0.718 | 0.859 | 0.385 | 0.342 | 0.323 | 0.175 | 0.519 | 0.493 | 0.655 | 0.453 |
| LXF-289 | 0.95 | 0.96 | 0.986 | 0.986 | 0.945 | 0.75 | 0.719 | 0.817 | 0.704 | 0.766 | 0.574 | 0.524 | 0.489 | 0.53 | 1.1 | 1.14 | 1.1 | 1.23 |
| H3255 | 0.719 | 0.685 | 0.802 | 0.875 | 0.741 | 0.84 | 0.828 | 0.803 | 0.846 | 0.754 | 0.489 | 0.384 | 0.313 | 0.31 | 0.987 | 0.903 | 0.937 | 0.876 |
| 201T | 1.09 | 1.1 | 1.07 | 1.11 | 1 | 0.997 | 1.04 | 0.961 | 1.08 | 0.942 | 0.461 | 0.441 | 0.486 | 0.473 | 0.595 | 0.591 | 0.645 | 0.683 |
| NCI-H2126 | 1.14 | 1.12 | 1.11 | 1.08 | 1.11 | 0.899 | 0.75 | 0.737 | 0.809 | 0.851 | 0.552 | 0.494 | 0.491 | 0.33 | 1 | 1.1 | 1.04 | 1.13 |
| HOP-62 | 0.714 | 0.558 | 0.851 | 0.725 | 0.637 | 0.438 | 0.693 | 0.602 | 0.619 | 0.6 | 0.706 | 0.655 | 0.512 | 0.679 | 0.589 | 0.557 | 0.621 | 0.743 |
| CAL-12T | 0.843 | 0.914 | 0.788 | 0.979 | 1.03 | 0.916 | 0.571 | 0.668 | 0.752 | 0.725 | 0.531 | 0.579 | 0.272 | 0.188 | 0.701 | 0.623 | 0.58 | 0.354 |
| NCI-H1755 | 1.08 | 0.962 | 0.934 | 0.95 | 0.958 | 0.81 | 0.773 | 0.709 | 0.824 | 0.728 | 0.638 | 0.633 | 0.608 | 0.546 | 0.427 | 0.461 | 0.629 | 0.428 |
